Results taken from ChEMBL document CHEMBL1201862, “PubChem BioAssay data set” (2004).
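1) Cells in 96-well plates. 2) Compound, 48 h, 5 concentrations. 3) Linear interpolation between surrounding doses. 4) Unreached endpoint = highest concentration. Here, GI50 denotes the concentration required for 50% inhibition of growth.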 Active and inactive are the calls of the source. Cut-off read from the data, not from the text of the source: active = GI50 up to about 1.1 µM and inactive = higher.

Legend:
Assay in all cases: DTP human tumour cell line panel, 48 h
SNB-75 = system: SNB-75
HCT-15 = system: HCT-15
A498 = system: A498
LOX IMVI = system: LOX IMVI
MDA-MB-231 = system: MDA-MB-231
RPMI-8226 = system: RPMI-8226
SF-268 = system: SF-268
SF-539 = system: SF-539
DU-145 = system: DU-145
SK-OV-3 = system: SK-OV-3
UACC-62 = system: UACC-62
SNB-19 = system: SNB-19
U-251 = system: U-251
K562 = system: K562
NCI-H226 = system: NCI-H226
PC-3 = system: PC-3
OVCAR-8 = system: OVCAR-8
HOP-92 = system: HOP-92
SK-MEL-28 = system: SK-MEL-28

SMILES	GI50 (SNB-75)	GI50 (HCT-15)	GI50 (A498)	GI50 (LOX IMVI)	GI50 (MDA-MB-231)	GI50 (RPMI-8226)	GI50 (SF-268)	GI50 (SF-539)	GI50 (DU-145)	GI50 (SK-OV-3)	GI50 (UACC-62)	GI50 (SNB-19)	GI50 (U-251)	GI50 (K562)	GI50 (NCI-H226)	GI50 (PC-3)	GI50 (OVCAR-8)	GI50 (HOP-92)	GI50 (SK-MEL-28)
COc1c(C)c(OC)c2c(c1O)[C@@H]1[C@@H]3Cc4c(OC)c(C)c(OC)c(O)c4[C@H](CNC(=O)c4cnc5ccccc5n4)N3[C@@H](C#N)[C@H](C2)N1C	0.00266 µM (active)	0.00826 µM	0.00232 µM (active)	0.00108 µM (active)	0.00326 µM (active)	0.000634 µM (active)	0.00354 µM (active)	0.000873 µM (active)	0.0026 µM (active)	0.0125 µM (active)	0.00123 µM (active)	0.00385 µM (active)	0.00135 µM (active)	0.000977 µM (active)	0.00246 µM (active)	0.00433 µM (active)	0.00283 µM (active)	0.00136 µM (active)	0.0029 µM (active)
COc1ccc(-c2cc(C3CC3)nc(SCC(=O)O)c2C#N)cc1	> 100 µM (inactive)	65.8 µM	> 100 µM (inactive)	36.6 µM (inactive)	> 100 µM (inactive)	35.6 µM (inactive)	> 100 µM (inactive)	> 100 µM (inactive)	85.3 µM (inactive)	56.2 µM (inactive)	> 100 µM (inactive)	> 100 µM (inactive)	58.9 µM (inactive)	64.3 µM (inactive)	82.6 µM (inactive)	79.8 µM (inactive)	> 100 µM (inactive)	82.6 µM (inactive)	> 100 µM (inactive)
O=C(O)C1C2C=CC(O2)C1C(=O)NCc1cccnc1 (stereo not drawn)	> 100 µM (inactive)	> 100 µM	> 100 µM (inactive)	> 100 µM (inactive)	> 100 µM (inactive)	> 100 µM (inactive)	> 100 µM (inactive)	> 100 µM (inactive)	> 100 µM (inactive)	> 100 µM (inactive)	> 100 µM (inactive)	> 100 µM (inactive)	> 100 µM (inactive)	> 100 µM (inactive)	> 100 µM (inactive)	> 100 µM (inactive)	> 100 µM (inactive)	> 100 µM (inactive)	> 100 µM (inactive)
CNc1cc(N)ccc1C(=O)N1CCC[C@H]1CO	> 100 µM (inactive)	> 100 µM	> 100 µM (inactive)	> 100 µM (inactive)	> 100 µM (inactive)	> 100 µM (inactive)	> 100 µM (inactive)	> 100 µM (inactive)	> 100 µM (inactive)	> 100 µM (inactive)	> 100 µM (inactive)	> 100 µM (inactive)	> 100 µM (inactive)	> 100 µM (inactive)	27.3 µM (inactive)	> 100 µM (inactive)	> 100 µM (inactive)	> 100 µM (inactive)	> 100 µM (inactive)
CC(=O)O[C@H]1C[C@@H](O[C@H]2[C@@H](O)C[C@H](O[C@H]3[C@@H](O)C[C@H](O[C@H]4CC[C@@]5(C)[C@H](CC[C@@H]6[C@@H]5C[C@@H](O)[C@]5(C)[C@@H](C7=CC(=O)OC7)CC[C@]65O)C4)O[C@@H]3C)O[C@@H]2C)O[C@H](C)[C@H]1O.CC(=O)O[C@H]1[C@@H](O)C[C@@H](O[C@H]2[C@@H](O)C[C@H](O[C@H]3[C@@H](O)C[C@H](O[C@H]4CC[C@@]5(C)[C@H](CC[C@@H]6[C@@H]5C[C@@H](O)[C@]5(C)[C@@H](C7=CC(=O)OC7)CC[C@]65O)C4)O[C@@H]3C)O[C@@H]2C)O[C@@H]1C	0.0483 µM (active)	0.0308 µM	0.0386 µM (active)	0.0313 µM (active)	0.162 µM (active)	0.0395 µM (active)	0.0236 µM (active)	0.0315 µM (active)	0.0192 µM (active)	0.0385 µM (active)	0.0387 µM (active)	0.0637 µM (active)	0.0302 µM (active)	0.0291 µM (active)	0.0508 µM (active)	0.0322 µM (active)	0.0378 µM (active)	0.0561 µM (active)	0.129 µM (active)
O=C(O)c1cc(=O)c2c(OCC(O)COc3cccc4oc(C(=O)O)cc(=O)c34)cccc2o1	> 61 µM (inactive)	> 100 µM	> 59 µM (inactive)	> 61.4 µM (inactive)	> 81.1 µM (inactive)	> 70.1 µM (inactive)	> 100 µM (inactive)	98.2 µM (inactive)	> 100 µM (inactive)	> 72.9 µM (inactive)	> 68.1 µM (inactive)	> 100 µM (inactive)	> 75.2 µM (inactive)	> 90.2 µM (inactive)	> 100 µM (inactive)	> 100 µM (inactive)	99.5 µM (inactive)	> 63.8 µM (inactive)	> 100 µM (inactive)
CN(C)CCn1c(=O)c2ccc(NCCN3CCNCC3)c3c(=O)c4ccccc4n(c1=O)c23	2.13 µM (inactive)	1.53 µM	4.15 µM (inactive)	1.69 µM (inactive)	2.56 µM (inactive)	0.251 µM (active)	1.13 µM (inactive)	0.473 µM (active)	3.39 µM (inactive)	3.45 µM (inactive)	3.47 µM (inactive)	2.94 µM (inactive)	1.11 µM (active)	0.231 µM (active)	2.38 µM (inactive)	1.79 µM (inactive)	1.91 µM (inactive)	0.776 µM (active)	6.61 µM (inactive)
